Read-outs that look alike come from different tables or passages of the source. Marks after values point to notes of the source that are not given here.
Key:
[1] = test system: Bacteroides fragilis; assay: Broth method MIC; format: cell-based
[2] = test system: Peptostreptococcus magnus; assay: Broth method MIC; format: cell-based; conditions: for CS MIC: Broth (study 2)
[3] = test system: Eubacterium lentum; assay: Broth method MIC; format: cell-based; conditions: for CS MIC: Broth (study 2)
[4] = test system: Peptostreptococcus magnus
[5] = test system: Fusobacterium gonidiaformans; assay: Agar method MIC; format: cell-based; conditions: for CS MIC: Agar
[6] = test system: Porphyromonas asaccharolytica; assay: Agar method MIC; format: cell-based; conditions: for CS MIC: Agar
[7] = test system: HPV-40; assay: RT-PCR ELISA for transient infection of human A431 cells, HPV-40; format: cell-based, human papilloma virus; conditions: with virus (HPV-40)
Experimental: (§1) Cellulose sulfate and dextran sulfate were each prepared as a 2 mg/ml solution in 0.9% NaCl and tested for microbicidal activity using the in vitro HPV transient infection assay originally described by Smith and colleagues (Smith, L. H., C. Foster, M. E. Hitchcock, and R. Isseroff. 1993. In vitro HPV-11 infection of human foreskin. J. Invest. Dermatol. 101:292-295) with some modifications (Ludmerer, S. W., W. L. McClements, X. M. Wang, J. C. Ling, K. U. Jansen, and N. D. Christensen. 2000. HPV11 mutant virus-like parties elicit immune responses that neutralize virus and delineate a novel neutralizing domain. Virology 266:237-245). An ELISA-based read-out of Optical Density (OD) values using alkaline phosphatase cleavage of the substrate p-nitrophenyl phosphate was also used to measure HPV infection as described below.
The RT-PCR assay to detect HPV-40 infection was designed similarly for the detection of HPV-11 infection as described above.
(§2) A modification of the RT-PCR assay that incorporates an ELISA-based read-out (Boehringer-Mannheim) was also included to assess microbicidal activity. Replicate cell cultures of A431 cells were infected with an aliquot of infectious HPV virions as described above. After 4 days of culture, cells were harvested and RNA extracted. RNA was subjected to RT using downstream anti-sense (reverse) primers for HPV-11 or HPV-40 and β-actin (as a control/housekeeping cellular transcript) to initiate cDNA synthesis. The cDNA was processed through 2 sets of 30 cycles of PCR amplification using nested primers: the second set of cycles used digoxygenin (DIG)-dUTP to label the PCR products with DIG. DIG-labeled PCR products were denatured then renatured together with a biotinylated oligonucleotide specific for the targeted PCR product. Biotinylated products were detected in ELISA with plates coated with streptavidin (to capture the biotinylated target PCR product) then anti-DIG antibody and substrate. Labeled PCR products were added directly to ELISA plates, or titrated at 10-fold dilutions in duplicate for each cell culture for each virus dilution.
The microbicidal activity was assessed either as the detection of ethidium stained PCR products or as an ELISA-based read-out as described above. […] An initial experiment was conducted to test the specificity of the ELISA-based RT-PCR assay using HPV-11 and HPV-40 infection of A431 cells (Table E).

[8] = test system: Porphyromonas levii; assay: Agar method MIC; format: cell-based; conditions: for CS MIC: Agar
[9] = test system: HPV-11; assay: RT-PCR ELISA for transient infection of human A431 cells, HPV-11; format: cell-based, human papilloma virus; conditions: with virus (HPV-11)
Experimental: as §1, §2

[10] = test system: Peptostreptococcus asaccharolyticus; assay: Broth method MIC; format: cell-based; conditions: for CS MIC: Broth (study 2)
[11] = Example 8, agar, 48 hours anaerobic, highest tested 625 μg/ml
[12] = 100 μg/ml at viral pretreatment
[13] = 1000 μg/ml at viral pretreatment

sodium cellulose sulfate
CS MIC ([1]; ATCC (first listed), Broth (study 1)): NI (not inhibited by 10 mg/ml (the highest concentration tested)) | CS MIC ([1]; ATCC (first listed), Broth (study 2)): 10000 µg/mL | CS MIC ([1]; ATCC (second listed), Broth (study 2)): NI (not inhibited by 10 mg/ml (the highest concentration tested)) | growth inhibition ([1]; at the concentrations tested): one strain of Bacteroides fragilis was inhibited but three others were not | CS MIC ([1]; rma# 11647, Broth (study 2)): NI (not inhibited by 10 mg/ml (the highest concentration tested)) | CS MIC ([1]; rma# 11652, Broth (study 2)): NI (not inhibited by 10 mg/ml (the highest concentration tested)) | growth inhibition ([2]; all strains): inhibited | CS MIC ([2]; rma# 11598): 5000 µg/mL | CS MIC ([2]; rma# 11658): 5000 µg/mL | growth inhibition ([3]; both strains): inhibited | CS MIC ([3]; rma# 9420): 5000 µg/mL | CS MIC ([3]; rma# 11700): 10000 µg/mL | CS MIC [4]: >0.625** mg/ml | lowest concentration of compound that inhibited growth [5, 11]: 156 µg/mL | CS MIC ([5]; rma# 11423): >625 µg/mL | CS MIC ([5]; rma# 11653): 156 µg/mL | lowest concentration of compound that inhibited growth [6, 11]: 80 µg/mL | CS MIC ([6]; rma# 11612): 80 µg/mL | CS MIC ([6]; rma# 11656): >625 µg/mL | Mean (SD) of O.D. reading for RT-PCR ELISA, HPV-40 probe ([7]; 10 μg/ml at viral pretreatment): 0.397 (0.050) O.D. | Mean (SD) of O.D. reading for RT-PCR ELISA, HPV-40 probe [7, 12]: 0.128 (0.008) O.D. | Mean (SD) of O.D. reading for RT-PCR ELISA, HPV-40 probe [7, 13]: 0.037 (0.004) O.D. | lowest concentration of compound that inhibited growth [8, 11]: 40 µg/mL | CS MIC ([8]; rma# 11425): >625 µg/mL | CS MIC ([8]; rma# 11601): 40 µg/mL | Mean (SD) of O.D. reading for RT-PCR ELISA, HPV-11 probe ([9]; 10 μg/ml at viral pretreatment): 1.485 (0.045) O.D. | Mean (SD) of O.D. reading for RT-PCR ELISA, HPV-11 probe [9, 12]: 0.049 (0.001) O.D. | Mean (SD) of O.D. reading for RT-PCR ELISA, HPV-11 probe [9, 13]: 0.038 (0.001) O.D. | growth inhibition ([10]; all strains): inhibited | CS MIC ([10]; rma# 11587): 10000 µg/mL | CS MIC ([10]; rma# 11607): 10000 µg/mL

Source: patent US7235536B2, “Cellulose sulfate and other sulfated polysaccharides to prevent and treat papilloma virus infection and other infections” (Rush Presbyterian-St. Luke's Medical Center, priority 2000, dated 2007)
